Columns and labels:
SARS-CoV-2 [1] = experiment: Antiviral activity against SARS-CoV-2 infected in Vero E6 cells assessed as inhibition of viral replication at 50 uM measured for 72 hrs relative to control; format: functional; conditions: Severe acute respiratory syndrome coronavirus 2, Vero C1008
[2] = Cytotoxicity against African green monkey Vero E6 cells assessed as cell viability at 50 uM incubated for 48 hrs by CellTiter96 assay relative to control; format: toxicity, cell-based, Vero C1008; conditions: chlorocebus sabaeus, read-out: Activity
[3] = target: Replicase polyprotein 1ab (Severe acute respiratory syndrome coronavirus 2) (UniProt P0DTD1); experiment: Inhibition of SARS-CoV-2 MPro using E(EDAS)TSAVLQSGFRK(DABCYL) as substrate at 100 uM by fluorescence based analysis relative to control
[4] = target: Replicase polyprotein 1ab (Severe acute respiratory syndrome coronavirus 2, UniProt P0DTD1); experiment: Inhibition of SARS-CoV-2 MPro using E(EDAS)TSAVLQSGFRK(DABCYL) as substrate by fluorescence based analysis
Vero C1008 = experiment: Cytotoxicity against African green monkey Vero E6 cells assessed as cell viability at 10 uM incubated for 48 hrs by CellTiter96 assay; format: toxicity, cell-based; conditions: chlorocebus sabaeus, vero c1008, 48 h
SARS-CoV-2 [5] = experiment: Antiviral activity against SARS-CoV-2 infected in Vero E6 cells assessed as inhibition of viral replication at 10 uM measured for 72 hrs relative to control; format: functional; conditions: Severe acute respiratory syndrome coronavirus 2, Vero C1008
SARS-CoV-2 [6] = experiment: Antiviral activity against SARS-CoV-2 infected in Vero E6 cells assessed as inhibition of viral replication measured for 72 hrs; format: functional, organism-based; conditions: Severe acute respiratory syndrome coronavirus 2, Vero C1008, 72 h
[7] = Cytotoxicity against African green monkey Vero E6 cells assessed as cell viability incubated for 48 hrs by CellTiter96 assay; format: toxicity, cell-based, Vero C1008; conditions: chlorocebus sabaeus

In the case of `COc1cccc(NC(=O)c2cccc(COc3ccc(Nc4ncnc5ccccc45)cc3Cl)c2)c1`, the inhibition at 50 µM (SARS-CoV-2 [1]) is reported as 92.7% and the viability at 48 h, 50 µM [2] is reported as 8.66%.
`Clc1cc(Nc2ncnc3ccccc23)ccc1OCc1ccccc1` gave an inhibition at 50 µM (SARS-CoV-2 [1]) of 25.1%, a viability at 48 h, 50 µM [2] of 49.3% and an inhibition [3] of 74.6%. The IC50 [4] was 3.97 µM.
Compound `O=C(Nc1cccc(I)c1)c1ccc(COc2ccc(Nc3ncnc4ccccc34)cc2Cl)cc1` has an inhibition at 50 µM (SARS-CoV-2 [1]) of 94.5%, a viability at 48 h, 50 µM [2] of 0% and an inhibition [3] of 87.7%. For the same compound, the IC50 [4] was 9.12 µM.
Compound `O=C(Nc1ccccc1)c1ccc(COc2ccc(Nc3ncnc4ccccc34)cc2Cl)cc1` has an inhibition at 50 µM (SARS-CoV-2 [1]) of 0%, a viability at 48 h, 50 µM [2] of 8.05% and an inhibition [3] of 66.3%.
For `O=C(Nc1cccc(C(F)(F)F)c1)c1ccc(COc2ccc(Nc3ncnc4ccccc34)cc2Cl)cc1`, the inhibition at 50 µM (SARS-CoV-2 [1]) was 90%, the viability at 48 h, 50 µM [2] was 17.3% and the inhibition [3] was 55.7%.
With `CCC(CC)COC(=O)[C@H](C)N[P@](=O)(OC[C@H]1OC(C#N)(c2ccc3c(N)ncnn23)[C@H](O)[C@@H]1O)Oc1ccccc1` (some centres undefined) the Activity (Vero C1008) was “Non-toxic” and the inhibition at 10 µM (SARS-CoV-2 [5]) was 99.9%.
`CS(=O)(=O)CCNCc1ccc(-c2ccc3ncnc(Nc4ccc(OCc5cccc(F)c5)c(Cl)c4)c3c2)o1` [LAPATINIB] gave an inhibition at 50 µM (SARS-CoV-2 [1]) of 92.7%, a viability at 48 h, 50 µM [2] of 71.1% and an inhibition [3] of 97.1%. It also gave an inhibition at 10 µM (SARS-CoV-2 [5]) of 58.8%.
In the case of `O=C(Nc1ccccc1F)c1ccc(COc2ccc(Nc3ncnc4ccccc34)cc2Cl)cc1`, the inhibition at 50 µM (SARS-CoV-2 [1]) is reported as 86.7%, the viability at 48 h, 50 µM [2] is reported as 0% and the inhibition [3] is reported as 66.4%.
With `O=C(Nc1cccc(I)c1)c1cccc(COc2ccc(Nc3ncnc4ccccc34)cc2Cl)c1` the inhibition at 50 µM (SARS-CoV-2 [1]) was 99%, the viability at 48 h, 50 µM [2] was 21% and the inhibition [3] was 55.7%.
Compound `O=C(Nc1ccc(Cl)cc1)c1cccc(COc2ccc(Nc3ncnc4ccccc34)cc2Cl)c1` has an inhibition at 50 µM (SARS-CoV-2 [1]) of 24.9%, a viability at 48 h, 50 µM [2] of 9.39% and an inhibition [3] of 69.5%.
`O=C(Nc1ccccc1Cl)c1ccc(COc2ccc(Nc3ncnc4ccccc34)cc2Cl)cc1` gave an inhibition at 50 µM (SARS-CoV-2 [1]) of 57.7%, a viability at 48 h, 50 µM [2] of 3.64% and an inhibition [3] of 30.8%.
Compound `O=C(Nc1cccc(C(F)(F)F)c1)c1cccc(COc2ccc(Nc3ncnc4ccccc34)cc2Cl)c1` has an inhibition at 50 µM (SARS-CoV-2 [1]) of 99% and a viability at 48 h, 50 µM [2] of 26.6%.
With `COc1cccc(NC(=O)c2ccc(COc3ccc(Nc4ncnc5ccccc45)cc3Cl)cc2)c1` the inhibition at 50 µM (SARS-CoV-2 [1]) was 82.2%, the viability at 48 h, 50 µM [2] was 22.6% and the inhibition [3] was 49.3%.
Compound `O=C(Nc1ccccc1)c1cccc(COc2ccc(Nc3ncnc4ccccc34)cc2Cl)c1` has an inhibition at 50 µM (SARS-CoV-2 [1]) of 68.4%, a viability at 48 h, 50 µM [2] of 1% and an inhibition [3] of 98%. It also gave an IC50 [4] of 3.75 µM.
For `O=C(Nc1ccccc1F)c1cccc(COc2ccc(Nc3ncnc4ccccc34)cc2Cl)c1`, the inhibition at 50 µM (SARS-CoV-2 [1]) was 96.9%, the viability at 48 h, 50 µM [2] was 13.6% and the inhibition [3] was 68.6%. For the same compound, the EC50 (SARS-CoV-2 [6]) was 1100 nM, the CC50 at 48 h [7] was over 100 µM and the inhibition at 10 µM (SARS-CoV-2 [5]) was 82.2%.
Work on `Fc1cccc(COc2ccc(Nc3ncnc4ccccc34)cc2Cl)c1` yielded an inhibition at 50 µM (SARS-CoV-2 [1]) of 43.7%, a viability at 48 h, 50 µM [2] of 44.8% and an inhibition [3] of 82.6%. For the same compound, the IC50 [4] was 3.18 µM.
For `O=C(Nc1ccccc1Cl)c1cccc(COc2ccc(Nc3ncnc4ccccc34)cc2Cl)c1`, the inhibition at 50 µM (SARS-CoV-2 [1]) was 95.9%, the viability at 48 h, 50 µM [2] was 38% and the inhibition [3] was 53%.
For `O=C(Nc1ccc(Cl)cc1)c1ccc(COc2ccc(Nc3ncnc4ccccc34)cc2Cl)cc1`, the inhibition at 50 µM (SARS-CoV-2 [1]) was 82.2%, the viability at 48 h, 50 µM [2] was 0% and the inhibition [3] was 73.2%. It also gave an IC50 [4] of 4.83 µM.
For `Clc1cc(Nc2ncnc3ccccc23)ccc1OCc1cccc(Br)c1`, the inhibition at 50 µM (SARS-CoV-2 [1]) was 68.4%, the viability at 48 h, 50 µM [2] was 28.1% and the inhibition [3] was 82%. It also gave an IC50 [4] of 4.38 µM.
